Test results as given in US4803266A, “3-Oxoalkylidene-2-azetidinone derivatives” (Taisho Pharmaceutical Co., Ltd., priority 1986, dated 1989).

Legend:
[1] = test system: blood platelet aggregation; test: Blood platelet aggregation inhibition in vitro in rabbit PRP, collagen induced; type: cell-based, male, New Zealand strain house rabbit; conditions: Oryctolagus cuniculus, collagen final concentration 5 μg/ml, 37° C., 3 minutes preincubation, 50% inhibition of maximum aggregation rate
Experimental: (§1) Citrated blood (one volume of 3.2% sodium citrate; 9 volumes of blood) was collected from carotid artery of male, New Zealand strain house rabbit, centrifuged at 150 g for 15 minutes to give platelet rich plasma (PRP) as a supernatant, and the remaining blood was centrifuged at 1500 g for 10 minutes to give platelet poor plasma (PPP) as a supernatant. The platelet count of PRP was adjusted to 50-60×10^4 /μl by dilution of PPP. Blood platelet aggregation was carried out according to the method of Born [Born, G. V. R., Nature, 194, 927 (1962)]. Namely, 25 μl of the test drug, (all the test drugs were dissolved in dimethyl sulfoxide and adjusted to the desired concentration with physiological saline solution), was added to 250 μl of PRP, and the mixture was incubated at 37° C. for 3 minutes. 25 μl of the aggregation inducing substance [adenosine diphosphate (ADP); final concentration 5 μM or collagen: final concentration 5 μg/ml] was added, the mixture was measured for 5 minutes by blood platelet aggregation ability measurement apparatus (Aggricoda TM-PA-3210, Kyoto Dai-ichi Kagaku) to obtain the maximum aggregation rate, and there was calculated the concentration of the test drug (ICP50) which brings about 50% inhibition to the maximum aggregation rate obtained by adding the aggregation inducing substance to PRP containing the solvent only.
(§2) The compound numbers in Table 1 correspond to those in the Examples described below.

[2] = test system: blood platelet aggregation; test: Blood platelet aggregation inhibition in vitro in rabbit PRP, ADP induced; type: cell-based, male, New Zealand strain house rabbit; conditions: Oryctolagus cuniculus, ADP final concentration 5 μM, 37° C., 3 minutes preincubation, 50% inhibition of maximum aggregation rate
Experimental: as §1, §2

CC(=O)/C=C1/C(=O)N(c2ccccc2)C1c1ccccc1 (stereo not drawn) [Compound 1, (E)-3-(2-oxopropylidene)-1,4-diphenyl-2-azetidinone]
IC50 [1]: 14 µM | IC50 [2]: 33 µM

CCC(=O)/C=C1/C(=O)N(c2ccccc2)C1c1ccccc1 (stereo not drawn) [Compound 2]
IC50 [1]: 32 µM | IC50 [2]: 28 µM

O=C(/C=C1/C(=O)N(c2ccccc2)C1c1ccccc1)c1ccccc1 (stereo not drawn) [Compound 4]
IC50 [1]: 16 µM | IC50 [2]: 13 µM

Cc1ccc(C(=O)/C=C2/C(=O)N(c3ccccc3)C2c2ccccc2)cc1 (stereo not drawn) [Compound 5]
IC50 [1]: 23.5 µM | IC50 [2]: 24 µM

COc1ccc(C(=O)/C=C2/C(=O)N(c3ccccc3)C2c2ccccc2)cc1 (stereo not drawn) [Compound 6]
IC50 [1]: 18 µM | IC50 [2]: 24 µM

COc1ccc(C(=O)/C=C2/C(=O)N(c3ccccc3)C2c2ccccc2)c(OC)c1 (stereo not drawn) [Compound 7]
IC50 [1]: 23 µM | IC50 [2]: 12 µM

O=C(/C=C1/C(=O)N(c2ccccc2)C1c1ccccc1)c1ccc(F)cc1 (stereo not drawn) [Compound 8]
IC50 [1]: 13.6 µM | IC50 [2]: 9.2 µM

O=C(/C=C1/C(=O)N(c2ccccc2)C1c1ccccc1)c1ccc(Cl)cc1 (stereo not drawn) [Compound 9]
IC50 [1]: 12 µM | IC50 [2]: 15 µM

O=C(/C=C1/C(=O)N(c2ccccc2)C1c1ccccc1)c1ccc(Br)cc1 (stereo not drawn) [Compound 10]
IC50 [1]: 26 µM | IC50 [2]: 36 µM

O=C(/C=C1/C(=O)N(c2ccccc2)C1c1ccccc1)c1ccc(-c2ccccc2)cc1 (stereo not drawn) [Compound 11]
IC50 [1]: 22 µM | IC50 [2]: > 30 µM

O=C(/C=C1/C(=O)N(c2ccccc2)C1c1ccccc1)c1ccc([N+](=O)[O-])cc1 (stereo not drawn) [Compound 12]
IC50 [1]: 4.7 µM | IC50 [2]: 5.6 µM

CCOC(=O)CC(=O)/C=C1/C(=O)N(c2ccccc2)C1c1ccccc1 (stereo not drawn) [Compound 15]
IC50 [1]: 16.6 µM | IC50 [2]: 21.5 µM

COc1ccc(C(=O)/C=C2/C(=O)N(c3ccccc3C)C2c2ccccc2)cc1 (stereo not drawn) [Compound 16]
IC50 [1]: 4.1 µM | IC50 [2]: 12.5 µM

Cc1ccccc1N1C(=O)/C(=C/C(=O)c2ccc(F)cc2)C1c1ccccc1 (stereo not drawn) [Compound 17]
IC50 [1]: 5 µM | IC50 [2]: 7.7 µM

Cc1ccccc1N1C(=O)/C(=C/C(=O)c2ccc([N+](=O)[O-])cc2)C1c1ccccc1 (stereo not drawn) [Compound 18]
IC50 [1]: 3.2 µM | IC50 [2]: 6.6 µM

Cc1ccc(C(=O)/C=C2/C(=O)N(c3ccc(Cl)cc3C)C2c2ccccc2)cc1 (stereo not drawn) [Compound 21]
IC50 [2]: 30.9 µM

COc1ccc(C(=O)/C=C2/C(=O)N(c3ccc(Cl)cc3C)C2c2ccccc2)cc1 (stereo not drawn) [Compound 22]
IC50 [2]: 41.3 µM

Cc1cc(Cl)ccc1N1C(=O)/C(=C/C(=O)c2ccc([N+](=O)[O-])cc2)C1c1ccccc1 (stereo not drawn) [Compound 24]
IC50 [2]: 6.4 µM

CC(=O)/C=C1/C(=O)N(c2cc(Cl)ccc2C)C1c1ccccc1 (stereo not drawn) [Compound 25]
IC50 [1]: 6.6 µM | IC50 [2]: 11.1 µM

Cc1ccc(Cl)cc1N1C(=O)/C(=C/C(=O)c2ccccc2)C1c1ccccc1 (stereo not drawn) [Compound 26]
IC50 [1]: 9.5 µM | IC50 [2]: 16.5 µM

O=C(/C=C1/C(=O)N(c2ccc(F)cc2)C1c1ccccc1)c1ccccc1 (stereo not drawn) [Compound 29]
IC50 [1]: 8.1 µM | IC50 [2]: 9 µM

O=C(/C=C1/C(=O)N(c2ccc(F)cc2)C1c1ccccc1)c1ccc([N+](=O)[O-])cc1 (stereo not drawn) [Compound 32]
IC50 [1]: 3.8 µM | IC50 [2]: 3.5 µM

O=C(/C=C1/C(=O)N(c2ccccc2F)C1c1ccccc1)c1ccc(F)cc1 (stereo not drawn) [Compound 33]
IC50 [1]: 12.5 µM | IC50 [2]: 11.9 µM

O=C(/C=C1/C(=O)N(c2ccccc2F)C1c1ccccc1)c1ccc([N+](=O)[O-])cc1 (stereo not drawn) [Compound 34]
IC50 [1]: 6.6 µM | IC50 [2]: 8.2 µM

O=C(/C=C1/C(=O)N(c2cc(Cl)cc(Cl)c2)C1c1ccccc1)c1ccc(F)cc1 (stereo not drawn) [Compound 37]
IC50 [1]: 17.8 µM | IC50 [2]: 21.2 µM

O=C(/C=C1/C(=O)N(c2cc(Cl)cc(Cl)c2)C1c1ccccc1)c1ccc([N+](=O)[O-])cc1 (stereo not drawn) [Compound 38]
IC50 [1]: 4.6 µM | IC50 [2]: 9 µM

COc1ccc(C(=O)/C=C2/C(=O)N(c3ccc(Br)cc3)C2c2ccccc2)cc1 (stereo not drawn) [Compound 39]
IC50 [1]: > 30 µM | IC50 [2]: > 30 µM

O=C(/C=C1/C(=O)N(c2ccc(Br)cc2)C1c1ccccc1)c1ccc(F)cc1 (stereo not drawn) [Compound 40]
IC50 [1]: 13.2 µM | IC50 [2]: 11.3 µM

O=C(/C=C1/C(=O)N(c2ccc(Br)cc2)C1c1ccccc1)c1ccc([N+](=O)[O-])cc1 (stereo not drawn) [Compound 41]
IC50 [1]: 5.1 µM | IC50 [2]: 4.2 µM

O=C(/C=C1/C(=O)N(c2cccc(C(F)(F)F)c2)C1c1ccccc1)c1ccccc1 (stereo not drawn) [Compound 43]
IC50 [1]: 7.7 µM | IC50 [2]: 14 µM

O=C(/C=C1/C(=O)N(c2cccc(C(F)(F)F)c2)C1c1ccccc1)c1ccc(F)cc1 (stereo not drawn) [Compound 44]
IC50 [1]: 7.3 µM | IC50 [2]: 10.3 µM

O=C(/C=C1/C(=O)N(c2cccc(C(F)(F)F)c2)C1c1ccccc1)c1ccc([N+](=O)[O-])cc1 (stereo not drawn) [Compound 45]
IC50 [1]: 5.2 µM | IC50 [2]: 4.4 µM

O=C(/C=C1/C(=O)N(Cc2ccccc2)C1c1ccccc1)c1ccc(F)cc1 (stereo not drawn) [Compound 52]
IC50 [2]: 7.9 µM

O=C(/C=C1/C(=O)N(Cc2ccccc2)C1c1ccccc1)c1ccc([N+](=O)[O-])cc1 (stereo not drawn) [Compound 53]
IC50 [2]: 4.9 µM

CC(=O)/C=C1/C(=O)N(Cc2ccccc2Cl)C1c1ccccc1 (stereo not drawn) [Compound 54]
IC50 [1]: 15.5 µM | IC50 [2]: 11.2 µM

O=C(/C=C1/C(=O)N(Cc2ccccc2Cl)C1c1ccccc1)c1ccc(F)cc1 (stereo not drawn) [Compound 55]
IC50 [1]: 8.3 µM | IC50 [2]: 10.5 µM

O=C(/C=C1/C(=O)N(Cc2ccccc2Cl)C1c1ccccc1)c1ccc([N+](=O)[O-])cc1 (stereo not drawn) [Compound 56]
IC50 [1]: 6.5 µM | IC50 [2]: 2.9 µM

CCc1ccc(C2/C(=C\C(=O)c3ccc(F)cc3)C(=O)N2c2ccccc2C)cc1 (stereo not drawn) [Compound 67]
IC50 [1]: 11 µM | IC50 [2]: 27.7 µM

CCc1ccc(C2/C(=C\C(=O)c3ccc([N+](=O)[O-])cc3)C(=O)N2c2ccccc2C)cc1 (stereo not drawn) [Compound 68]
IC50 [1]: 7.5 µM | IC50 [2]: 13.6 µM

O=C(/C=C1/C(=O)N(c2ccccc2)C1c1ccc(O)cc1)c1ccc([N+](=O)[O-])cc1 (stereo not drawn) [Compound 75]
IC50 [1]: 5.4 µM | IC50 [2]: 3.8 µM

O=C(/C=C1/C(=O)N(c2ccccc2)C1c1ccc(F)cc1)c1ccc(F)cc1 (stereo not drawn) [Compound 76]
IC50 [1]: 10.5 µM | IC50 [2]: 14.3 µM

O=C(/C=C1/C(=O)N(c2ccccc2)C1c1ccc(F)cc1)c1ccc([N+](=O)[O-])cc1 (stereo not drawn) [Compound 77]
IC50 [1]: 2.9 µM | IC50 [2]: 4.3 µM

Cc1ccccc1N1C(=O)/C(=C/C(=O)c2ccc(F)cc2)C1c1ccc(F)cc1 (stereo not drawn) [Compound 78]
IC50 [1]: 8.3 µM | IC50 [2]: 6.2 µM

Cc1ccccc1N1C(=O)/C(=C/C(=O)c2ccc([N+](=O)[O-])cc2)C1c1ccc(F)cc1 (stereo not drawn) [Compound 79]
IC50 [1]: 5.1 µM | IC50 [2]: 4.3 µM

O=C(/C=C1/C(=O)N(c2ccccc2)C1c1ccccc1F)c1ccc(F)cc1 (stereo not drawn) [Compound 80]
IC50 [1]: 10.9 µM | IC50 [2]: 7.4 µM

O=C(/C=C1/C(=O)N(c2ccccc2)C1c1ccccc1F)c1ccc([N+](=O)[O-])cc1 (stereo not drawn) [Compound 81]
IC50 [1]: 7 µM | IC50 [2]: 5.5 µM

Cc1ccccc1N1C(=O)/C(=C/C(=O)c2ccc(F)cc2)C1c1ccc(Br)cc1 (stereo not drawn) [Compound 85]
IC50 [1]: 14.4 µM | IC50 [2]: 17.7 µM

Cc1ccccc1N1C(=O)/C(=C/C(=O)c2ccc([N+](=O)[O-])cc2)C1c1ccc(Br)cc1 (stereo not drawn) [Compound 86]
IC50 [1]: 5.3 µM | IC50 [2]: 6.2 µM

Cc1ccc(CN2C(=O)/C(=C/C(=O)c3ccc([N+](=O)[O-])cc3)C2c2ccccc2)cc1 (stereo not drawn) [Compound 91]
IC50 [1]: 6.7 µM | IC50 [2]: 9.7 µM

COc1ccc(CN2C(=O)/C(=C/C(=O)c3ccc([N+](=O)[O-])cc3)C2c2ccccc2)cc1 (stereo not drawn) [Compound 92]
IC50 [1]: 6.5 µM | IC50 [2]: 7.3 µM

O=C(/C=C1/C(=O)N(Cc2ccc(F)cc2)C1c1ccccc1)c1ccc([N+](=O)[O-])cc1 (stereo not drawn) [Compound 93]
IC50 [1]: 8.7 µM | IC50 [2]: 18.3 µM

COc1ccccc1CN1C(=O)/C(=C/C(=O)c2ccc([N+](=O)[O-])cc2)C1c1ccccc1 (stereo not drawn) [Compound 94]
IC50 [1]: 6.9 µM | IC50 [2]: 8 µM

O=C(/C=C1/C(=O)N(Cc2ccccc2C(F)(F)F)C1c1ccccc1)c1ccc([N+](=O)[O-])cc1 (stereo not drawn) [Compound 95]
IC50 [1]: 2.5 µM | IC50 [2]: 15.4 µM

O=C(/C=C1/C(=O)N(Cc2ccccc2F)C1c1ccccc1)c1ccc([N+](=O)[O-])cc1 (stereo not drawn) [Compound 96]
IC50 [1]: 3.7 µM | IC50 [2]: 3.9 µM

O=C(/C=C1/C(=O)N(Cc2cccc(Cl)c2)C1c1ccccc1)c1ccc([N+](=O)[O-])cc1 (stereo not drawn) [Compound 97]
IC50 [1]: 3.2 µM | IC50 [2]: 16 µM

O=C(/C=C1/C(=O)N(Cc2ccc(Cl)cc2)C1c1ccccc1)c1ccc([N+](=O)[O-])cc1 (stereo not drawn) [Compound 98]
IC50 [1]: 8.8 µM | IC50 [2]: 11.2 µM

O=C(/C=C1/C(=O)N(Cc2ccc(Cl)cc2Cl)C1c1ccccc1)c1ccc([N+](=O)[O-])cc1 (stereo not drawn) [Compound 103]
IC50 [1]: 6.7 µM | IC50 [2]: 18.5 µM

COc1ccc(Cc2nccc3cc(OC)c(OC)cc23)cc1OC [papaverin, reference compound]
IC50 [1]: > 100 µM | IC50 [2]: > 100 µM
